The results in this text go back to ChEMBL document CHEMBL4145625 (J Med Chem, 2018).

SMILES strings stand for the structures. Converted amounts (≈) assume the structure as drawn.

The target in one data set is Cytochrome P450 2D6 (Homo sapiens, UniProt P10635).
In data set [1] the test system is MGC-803. Nature of the data set: Antitumor activity against human MGC803 cells xenografted in BALB/c nude mouse assessed as tumor growth inhibition at 5 mg/kg, po administered once daily for 18 days measured at post last dose relative to control. The settings on record: MGC-803, po, 432 h, read-out: TGI. In kind it is functional.
Data set [2] deals with NCI-H460. Nature of the data set: Antitumor activity against human NCI-H460 cells xenografted in BALB/c nude mouse assessed as tumor growth inhibition at 10 mg/kg, po administered once daily after 16 days relative to control. In kind it is functional. As to conditions: 384 h, read-out: TGI.
Data set [3] relates to NCI-H460. The settings on record: Homo sapiens.
Description: Antitumor activity against human NCI-H460 cells xenografted in po dosed BALB/c nude mouse assessed as tumor growth inhibition administered once daily after 16 days
In data set [4] the test system is HGC-27. In words: Antitumor activity against human HGC27 cells xenografted in BALB/c nude mouse assessed as tumor growth inhibition at 10 mg/kg, po administered once daily for 15 days measured at post last dose relative to control. In kind it is functional. As to conditions: HGC-27, po, 360 h, read-out: TGI.
Data set [5] concerns Mus musculus. In words: Toxicity in human MGC803 cells xenografted BALB/c nude mouse assessed as reduction in body weight at 5 to 20 mg/kg, po administered daily for 18 days measured at post last dose. The settings on record: in vivo, 432 h. In kind it is organism-based.
The test system of data set [6] is NCI-H460. In words: Antitumor activity against human NCI-H460 cells xenografted in BALB/c nude mouse assessed as tumor growth inhibition at 5 mg/kg, po administered once daily after 16 days relative to control. In kind it is functional. As to conditions: 384 h, read-out: TGI. For orientation: A xenograft is tissue or cells of one species grown in another, often human tumour cells in immunodeficient mice.

In data set [7] the test system is NCI-H460. In words: cells. In kind it is functional, cell-based. As to conditions: Homo sapiens, NCI-H460, 96 h.
Description: Cytotoxicity against human NCI-H460 cells after 96 hrs by MTT assay
Data set [8] concerns HGC-27. Nature of the data set: Antitumor activity against human HGC27 cells xenografted in BALB/c nude mouse assessed as tumor growth inhibition at 5 mg/kg, po administered once daily for 15 days measured at post last dose relative to control. As to conditions: HGC-27, po, 360 h, read-out: TGI. In kind it is functional.
Data set [9] has as its target T1, Phosphatidylinositol 4,5-bisphosphate 3-kinase catalytic subunit delta isoform (Homo sapiens, UniProt O00329).
T1 sequence (O00329 whole entry): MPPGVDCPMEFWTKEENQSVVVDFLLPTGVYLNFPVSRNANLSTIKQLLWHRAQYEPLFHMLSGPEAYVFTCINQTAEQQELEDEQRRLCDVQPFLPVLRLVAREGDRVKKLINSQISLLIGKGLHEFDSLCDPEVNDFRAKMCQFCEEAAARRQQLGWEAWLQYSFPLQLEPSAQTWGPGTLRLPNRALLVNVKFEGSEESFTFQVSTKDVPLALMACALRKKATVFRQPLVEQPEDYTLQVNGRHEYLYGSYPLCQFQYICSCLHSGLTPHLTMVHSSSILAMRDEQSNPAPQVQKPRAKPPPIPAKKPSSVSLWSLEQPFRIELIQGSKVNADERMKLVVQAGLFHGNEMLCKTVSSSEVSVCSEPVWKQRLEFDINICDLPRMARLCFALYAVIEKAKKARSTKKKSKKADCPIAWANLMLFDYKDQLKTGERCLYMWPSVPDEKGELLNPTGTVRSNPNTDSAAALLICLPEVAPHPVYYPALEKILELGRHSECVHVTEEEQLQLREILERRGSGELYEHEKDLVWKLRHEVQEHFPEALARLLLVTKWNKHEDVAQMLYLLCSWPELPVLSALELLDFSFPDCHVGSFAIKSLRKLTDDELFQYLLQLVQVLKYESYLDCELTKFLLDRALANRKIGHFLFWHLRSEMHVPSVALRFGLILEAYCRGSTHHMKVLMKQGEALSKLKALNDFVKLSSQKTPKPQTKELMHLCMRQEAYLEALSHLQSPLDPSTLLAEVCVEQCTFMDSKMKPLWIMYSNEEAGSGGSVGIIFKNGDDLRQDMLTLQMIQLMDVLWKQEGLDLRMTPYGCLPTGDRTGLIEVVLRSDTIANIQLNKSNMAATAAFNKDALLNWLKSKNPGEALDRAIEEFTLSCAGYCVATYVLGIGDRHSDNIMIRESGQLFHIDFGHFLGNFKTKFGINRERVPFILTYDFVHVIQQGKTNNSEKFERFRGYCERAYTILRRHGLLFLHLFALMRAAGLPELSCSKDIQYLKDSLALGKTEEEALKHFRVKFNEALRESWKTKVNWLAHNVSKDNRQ
In words: Inhibition of PI3Kdelta (unknown origin) using PIP2 as substrate by ADP-Glo assay. (ADP-Glo first removes unused ATP, then detects ADP through luciferase.)

Data set [10] has as its system Mus musculus. In words: Toxicity in human NCI-H460 cells xenografted BALB/c nude mouse assessed as reduction in body weight at 5 to 20 mg/kg, po administered once daily after 16 days. In kind it is organism-based. The settings on record: in vivo, 384 h.
In data set [11] the test system is MGC-803. Nature of the data set: Antitumor activity against human MGC803 cells xenografted in BALB/c nude mouse assessed as tumor growth inhibition at 20 mg/kg, po administered once daily for 18 days measured at post last dose relative to control. In kind it is functional. The settings on record: MGC-803, po, 432 h, read-out: TGI.
The nature of data set [12]: in vivo. The settings on record: ICR, mouse, plasma, iv, 3 mg/kg.
Data set [13] has as its system MGC-803. As to conditions: Homo sapiens.
Description: Antitumor activity against human MGC803 cells xenografted in po dosed BALB/c nude mouse assessed as tumor growth inhibition administered once daily measured at post last dose
For another data set, the system named is U-87 MG. Nature of the data set: Antitumor activity against Luc tagged human U87MG cells xenografted in BALB/c nude mouse glioblastoma orthotopic model assessed as tumor growth inhibition at 5 mg/kg, po qd by MRI method relative to control. In kind it is functional, U-87MG ATCC. The settings on record: read-out: TGI.
The nature of data set [14]: in vivo. As to conditions: ICR, mouse, brain, po, 30 mg/kg.
For data set [15], the system named is NCI-H460. Nature of the data set: Antitumor activity against human NCI-H460 cells xenografted in po dosed athymic BALB/c nude mouse administered as single dose via gavage after 2 to 24 hrs. In kind it is functional, organism-based.
Data set [16] can be described thus: in vivo. The settings on record: athymic BALB/c nude, mouse, plasma, po, 10 mg/kg.
Data set [17] concerns Mus musculus. Nature of the data set: Toxicity in human HGC27 cells xenografted in BALB/c nude mouse assessed as reduction in body weight at […], po administered once daily for 15 days measured at post last dose. As to conditions: in vivo, 360 h. In kind it is organism-based.
The nature of the next data set: in vitro. As to conditions: ICR, mouse, plasma.
The test system of data set [18] is Salmonella typhimurium. In words: Mutagenicity in Salmonella typhimurium TA1535 up at 50 ug/plate after 72 hrs in presence of S9 fraction by Ames test. In kind it is toxicity, organism-based. As to conditions: salmonella enterica subsp. enterica serovar typhimurium, s9, 72 h.
The subject of data set [19] is Salmonella typhimurium. Nature of the data set: Mutagenicity in Salmonella typhimurium TA1535 at 500 ug/plate after 72 hrs by Ames test. In kind it is toxicity, organism-based. The settings on record: salmonella enterica subsp. enterica serovar typhimurium. Background: The Ames test uses bacterial strains that need an amino acid and regain growth without it when mutated back.

For data set [20] the following is noted: mouse, in vivo, po, 10 mg/kg, 24 h.
Data set [21] relates to Salmonella typhimurium. In words: Mutagenicity in Salmonella typhimurium TA98 at 500 ug/plate after 72 hrs by Ames test. As to conditions: salmonella enterica subsp. enterica serovar typhimurium. In kind it is toxicity, organism-based.
Data set [22] relates to Mus musculus. Nature of the data set: In vivo inhibition of PI3Kalpha in po dosed athymic BALB/c nude mouse xenografted with human NCI-H460 cells administered as single dose via gavage after 2 to 24 hrs. In kind it is functional, organism-based.
Data set [23] deals with Mus musculus. Nature of the data set: Toxicity in human HGC27 cells xenografted BALB/c nude mouse assessed as reduction in body weight at 10 mg/kg, po administered once daily for 15 days measured at post last dose. In kind it is organism-based. The settings on record: in vivo, 360 h.

Chain of Cytochrome P450 2D6 (P10635 whole entry): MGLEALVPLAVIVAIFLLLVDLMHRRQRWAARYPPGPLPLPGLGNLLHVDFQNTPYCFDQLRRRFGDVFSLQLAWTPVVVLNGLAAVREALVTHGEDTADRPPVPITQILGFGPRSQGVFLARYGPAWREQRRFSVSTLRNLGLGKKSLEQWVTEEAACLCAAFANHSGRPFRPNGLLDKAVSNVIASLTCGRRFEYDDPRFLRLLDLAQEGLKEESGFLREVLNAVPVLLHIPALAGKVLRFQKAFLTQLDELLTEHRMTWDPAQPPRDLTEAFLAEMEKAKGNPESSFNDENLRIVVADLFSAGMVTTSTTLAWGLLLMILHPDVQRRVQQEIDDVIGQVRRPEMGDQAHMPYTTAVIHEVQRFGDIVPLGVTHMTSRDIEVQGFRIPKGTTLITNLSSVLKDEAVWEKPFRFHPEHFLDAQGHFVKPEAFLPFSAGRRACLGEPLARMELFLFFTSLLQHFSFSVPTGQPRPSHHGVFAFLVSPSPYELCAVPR
Description for Cytochrome P450 2D6: Inhibition of CYP2D6 in human liver microsomes assessed as reduction in dextrophan formation using detromethorphann as substrate after 10 to 20 mins in presence of NADPH by LC-MS/MS analysis
Description for in vitro: Protein binding in ICR mouse plasma at 2 uM after 6 hrs by LC-MS/MS analysis

For the compound `COc1ncc(-c2cc(O[C@@H]3CCOC3)c3nc(N)nc(C)c3c2)cc1NS(=O)(=O)c1ccc(F)cc1F`, the IC50 (in general, the concentration needed to halve the response being measured) is over 10000 nM at Cytochrome P450 2D6, 93 nM with NCI-H460 [7] and 0.23 nM in [9]. The inhibition in vivo at 5 mg/kg in the data set with MGC-803 [1] was determined as 55.1%; with NCI-H460 [6], 41.9%; in the data set with HGC-27 [8], 36.1%. The inhibition in vivo at 10 mg/kg in the data set with NCI-H460 [2] is 83.1%; in the data set with HGC-27 [4], 74.7%. In addition, the TGI entry in the data set on NCI-H460 [3] and with MGC-803 [13] was “Dose-dependent effect” throughout. The Activity result in the data set on Mus musculus [5] and with Mus musculus [10] was “Toxic” in each case. Further, the inhibition in vivo at 20 mg/kg in the data set on MGC-803 [11] is 77.8%. Besides, the total exposure AUC(0-inf) (usually total exposure, with the tail of the curve extrapolated) in “in vivo [12]” worked out at 911 ng·h/mL.

`CNc1nc(C)c2cc(-c3cnc(OC)c(NS(=O)(=O)c4ccc(F)cc4F)c3)cc(OC3CCOCC3)c2n1`: the 50% inhibitory concentration (IC50) on Cytochrome P450 2D6 is over 10000 nM; in the data set with NCI-H460 [15], 34 ng/mL (≈ 59.5 nM); in the data set with NCI-H460 [7], 59 nM; in data set [9], 0.35 nM; with Mus musculus [22] (Mus musculus, BALB/c, NCI-H460), 0.8 ng/mL (≈ 1.4 nM). In addition, in the data set on U-87 MG, the inhibition in vivo at 5 mg/kg stood at 96%. In addition, the maximum concentration (Cmax) (commonly the maximum level reached in the sampled fluid or tissue) in “in vivo [14]” turned out to be 723 ng/g. Besides, the area under the curve AUC(0-t) (usually exposure summed from dosing to a finite time, without extrapolation to infinity) at 24 h in the data set “in vivo [16]” was 5460 ng·h/mL. Moreover, the Activity result in the data set with Mus musculus [17], with Salmonella typhimurium [18], in the data set with Salmonella typhimurium [19] and in the data set with Salmonella typhimurium [21] was “Toxic” in each case. In addition, in “in vitro”, the fraction unbound (as a rule, free concentration divided by total concentration) at 6 h, 2 µM is 0.0842. This compound displayed an AUC in data set [20] of 5576 ng·h/g. The 90% effect concentration (IC90) (as a rule, the concentration at which the effect reaches the 90% level) in the data set on Mus musculus [22] was 4 ng/mL (≈ 7 nM). In “in vivo [12]”, this compound had an AUC(0-inf) of 3500 ng·h/mL.

As to `CNc1nc(C)c2cc(-c3cnc(OC)c(NS(=O)(=O)c4ccc(F)cc4F)c3)cc(O[C@@H]3CCOC3)c2n1`, the IC50 on Cytochrome P450 2D6 was over 10000 nM; in data set [9], 0.37 nM. Moreover, the inhibition in vivo at 5 mg/kg in the data set on U-87 MG is 89.4%. The highest level in “in vivo [14]” (Cmax) was 433 ng/g. Besides, the inhibition in vivo at 10 mg/kg in the data set with HGC-27 [4] amounted to 94.6%. Also, the Activity entry with Mus musculus [23] is “Toxic”. In “in vivo [12]”, this compound displayed an AUC(0-inf) of 1460 ng·h/mL.
